Source: patent US9938284B2, “Organic compounds” (INTRA-CELLULAR THERAPIES, INC., priority 2014, dated 2018)

Assay: Pharmacokinetic analysis in mice, plasma and brain levels by LC-MS/MS
Format: in vivo
Settings: male C57 BL/6 mice, 10 mg/kg oral (PO)
Procedure: Pharmacokinetic Analysis of the Compounds of the Invention
Animals: Male, C57 BL/6 mice (Jackson Labs, 25-30 g in body weight) are provided by Jackson Laboratories. Up to five mice are housed per cage and are maintained under a 12 hour light/dark cycle with access to food and water ad libitum. All procedures for the handling and use of animals follow the guidelines of the Institutional Animal Care and Use Committee (IACUC) of Columbia University, in accordance with NIH guidelines. Eight week-old mice (N=3/dose level or treatment group) are used in the experiments.
Experimental Treatment: Compounds: Selected Compounds of the Invention are evaluated in the present study. […]
Compound Preparation: Powdered stocks of the test compound(s) are measured and dissolved in 3% 1N HCl, 5% Labrasol and 92% of 5% TPGS in 0.05M Citrate buffer (CB, pH 4.0). […]
Treatment of Animals: Mice (N=3 mice/dose/time point) receive a 10 mg/kg oral (PO) dose of the test compound(s) at time 0. […] Plasma and brain tissue samples are processed and analyzed by the analytical group using LC-MS/MS methods, as described below. […]
Each tube is vortexed, then centrifuged for 20 min at 15000 rpm using a Tomy benchtop centrifuge at 4° C. Standard is an internal standard used for LC-MS/MS quantitation. […]
RESULTS: Plasma and Brain Analysis: All the test compound(s) tested could be detected and analyzed when spiked into control plasma. […]

**Q.** Which results are given for `Cc1nnc2n(C)c(=O)c3c(Nc4ccccc4)n(Cc4ccc(-c5cccc(F)n5)cc4)nc3n12` [Example 2, 2-(4-(6-Fluoro-pyridin-2-yl)-benzyl)-5,8-dimethyl-3-phenylamino-2H,5H-pyrazolo[4,3-e][1,2,4]triazolo[4,3-a]pyrimidin-4-one]?
**A.** Kp (C57BL/6, mouse, brain/plasma, 0.25-2 h, read-out: B/P ratio (Brain AUC(0-2h)/Plasma AUC(0-2h))): ≤ 0.15; oral bioavailability: display oral bioavailability
